# Reference: US10759826B2, “15β-substituted estrone derivatives as selective inhibitors of 17β-hydroxysteroid-dehydrogenases, method of preparation and use thereof” (USTAV ORGANICKE CHEMIE A BIOCHEMIE AV CR, V.V.I., priority 2016, dated 2020)
# Assays:
# [1] = biological target: T1, estrogen receptor α (ERα) (Homo sapiens, UniProt P03372); test: ERα luciferase reporter assay in U2OS cells; format: cell-based; settings: for ER antagonism in words: testing range 10 μmol·l^−1 to 1 nmol·l^−1
# T1 construct: expressed in transfected cells
# T1 sequence (P03372 1-595): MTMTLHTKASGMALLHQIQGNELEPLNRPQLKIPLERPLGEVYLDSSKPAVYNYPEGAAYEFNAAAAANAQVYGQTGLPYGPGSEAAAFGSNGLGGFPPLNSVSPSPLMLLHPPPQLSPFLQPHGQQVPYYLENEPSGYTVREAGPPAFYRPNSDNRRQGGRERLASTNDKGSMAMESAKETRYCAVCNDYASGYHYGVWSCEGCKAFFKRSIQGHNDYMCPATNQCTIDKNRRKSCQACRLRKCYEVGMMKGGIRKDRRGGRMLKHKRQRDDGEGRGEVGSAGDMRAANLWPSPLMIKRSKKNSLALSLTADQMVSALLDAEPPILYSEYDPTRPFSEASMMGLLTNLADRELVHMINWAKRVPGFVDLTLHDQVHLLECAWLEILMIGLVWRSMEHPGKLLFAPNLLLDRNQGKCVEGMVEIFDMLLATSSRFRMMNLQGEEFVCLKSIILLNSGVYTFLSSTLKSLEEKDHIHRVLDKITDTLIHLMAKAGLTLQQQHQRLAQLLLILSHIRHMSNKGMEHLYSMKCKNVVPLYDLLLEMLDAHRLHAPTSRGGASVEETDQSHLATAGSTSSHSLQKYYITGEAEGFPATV
# human 17βHSD type 1 = biological target: T2, human 17βHSD type 1 (Homo sapiens, UniProt P14061); test: Inhibition of recombinant 17βHSD type 1, tritium-labeled substrate conversion; format: biochemical; settings: for inhibition at 0.1 µM: 0.1 μmol · l^−1 test substance; for inhibition at 0.1 µM / inhibition at 1 µM: read-out: % of inhibition of human 17βHSD1; for inhibition at 1 µM: 1 μmol · l^−1 test substance; for IC50: read-out: 17βHSD1 IC50
# T2 construct: made in house; expressing system suspended in buffer, not purified
# T2 sequence (P14061 1-328): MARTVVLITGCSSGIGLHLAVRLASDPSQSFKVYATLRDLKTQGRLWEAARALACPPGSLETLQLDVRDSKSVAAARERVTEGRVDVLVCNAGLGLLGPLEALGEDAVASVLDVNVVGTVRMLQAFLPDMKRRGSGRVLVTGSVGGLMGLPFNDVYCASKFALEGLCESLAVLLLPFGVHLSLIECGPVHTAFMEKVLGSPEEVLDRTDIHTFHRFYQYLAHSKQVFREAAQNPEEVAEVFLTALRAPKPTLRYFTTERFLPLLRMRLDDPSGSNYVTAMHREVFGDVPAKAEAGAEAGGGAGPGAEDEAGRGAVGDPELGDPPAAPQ
# Method: (§1) The inhibitory activity of the test substances was determined for individual isoenzymes from the 17βHSD family, specifically these were the types 1, 2, 3, 4, 5 and 7. Escherichia coli and mammalian cells expression systems were used for recombinant expression of individual isozymes of human 17βHSD. Only in the case of 17HSD5 the enzyme was partially purified and supernatant obtained by centrifugation of the bacterial lysate was used for testing. Systems expressing specific 17βHSD type were suspended in a reaction buffer and incubated with tritium-labeled substrates and respective cofactors at 37° C. in two parallel tests: the control arrangement (DMSO without the inhibitor) and the test arrangement (DMSO with the inhibitor). DMSO serves as a negative control in this case. After 20-30% of the substrate was converted by the activity of the enzyme to the product in a control test, both tests were terminated. Substrate and product from the test arrangement were isolated by SPE (solid phase extraction), and then separated by reverse phase HPLC. Substrate conversion was determined by integration of the signals of the substrate and product, and was expressed in %. For the purposes of the subsequent calculation of enzyme inhibition, the conversion of the control test was designated as 0% inhibition. All tests were performed in triplicates. IC50 values were subsequently determined by a standard method using the “One Ligand Binding” model of SigmaPlot kinetics module (Schustera et. al. J. Ster. Biochem. Mol. Biol. 2011, 125, 148; Möller et. al. Biioorg. Med. Chem. Lett. 2009, 19, 6740; Möller et. al. PLoS One, 2010, 5, 6, e10969).
# human 17βHSD type 5 = biological target: T3, human 17βHSD type 5 (Homo sapiens, UniProt P42330); test: Inhibition of recombinant 17βHSD type 5, tritium-labeled substrate conversion; format: biochemical; settings: 1 μmol · l^−1 test substance
# T3 construct: made in house; host or cells: bacteria (Escherichia coli); supernatant of the lysate
# T3 sequence (P42330 1-323): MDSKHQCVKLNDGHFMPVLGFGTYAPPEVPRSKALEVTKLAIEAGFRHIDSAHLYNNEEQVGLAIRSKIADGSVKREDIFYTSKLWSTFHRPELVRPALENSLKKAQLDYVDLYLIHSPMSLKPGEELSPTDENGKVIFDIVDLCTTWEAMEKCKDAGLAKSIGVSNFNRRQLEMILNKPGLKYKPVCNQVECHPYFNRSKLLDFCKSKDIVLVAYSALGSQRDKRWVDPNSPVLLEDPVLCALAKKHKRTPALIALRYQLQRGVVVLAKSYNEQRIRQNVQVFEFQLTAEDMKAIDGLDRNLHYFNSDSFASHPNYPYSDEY
# Method: as §1
# human 17βHSD1 [2] = biological target: T4, human 17βHSD1 (Homo sapiens, UniProt P14061); test: 17βHSD inhibition in MCF-7 cells transfected with human 17βHSD1, E1 in supernatant; format: cell-based; set-up: expressed in transfected cells; host or cells: MCF-7; settings: 10 μmol·l^−1
# T4 sequence (P14061 1-328): T2 sequence (P14061 1-328)
# Method: (§2) For this experiment, non-cytotoxic concentrations of estrone derivative (10 μmol·l^−1) were used. E1 levels were determined by an immuno-enzymatic assay.
# CEM-DNR-bulk = test: MTT cytotoxicity assay, CEM-DNR-bulk; format: cell-based
# Source text: (§3) Compounds 5, 6, 7, 9, 14 and 15 were used for evaluation of antitumor activity. MTT cytotoxicity assay was used in vitro on cell lines derived from normal tissues and from tumors. Specifically, these were the K562 line (human myeloid leukemia), K562-Tax (human myeloid leukemia resistant to taxol and overexpressing PgP protein for multidrug resistance), CEM (T-lymphoblastic leukemia), CEM-DNR bulk (T-lymphoblastic leukemia resistant doxorubicin, lacking the expression of the target gene for inhibitors of topoisomerase II alpha), A549 line (human lung adenocarcinoma), HCT116p53 wt (human colon cancer), HCT116p53−/− (human colon cancer, mutant p53), U2OS line of human osteosarcoma and two fibroblast lines MRC5 and BJ as examples of non-tumor cells. Expression characteristics, profiles of susceptibility to classical antitumor drugs and methodology of the MTT cytotoxicity assay were repeatedly published (e.g. Noskova et al. Neoplasma 2002, 49, 418; S̆arek et. al. J. Med. Chem. 2003, 46, 25, 5402).
# BJ = test: MTT cytotoxicity assay, BJ fibroblasts; format: cell-based; settings: Homo sapiens, non-tumor fibroblasts
# Source text: as §3
# HCT116p53-/- = test: MTT cytotoxicity assay, HCT116p53-/-; format: cell-based; settings: Homo sapiens
# Source text: as §3
# A549 = test: MTT cytotoxicity assay, A549; format: cell-based; settings: Homo sapiens
# Source text: as §3
# K562-Tax = test: MTT cytotoxicity assay, K562-Tax; format: cell-based; settings: Homo sapiens
# Source text: as §3
# human 17βHSD1 [3] = biological target: T4, human 17βHSD1; test: 17βHSD inhibition in CHO cells transfected with human 17βHSD1, E1 in supernatant; format: cell-based; set-up: expressed in transfected cells; settings: 10 μmol·l^−1
# Method: as §2
# K562 = test: MTT cytotoxicity assay, K562; format: cell-based; settings: Homo sapiens
# Source text: as §3
# MRCS = test: MTT cytotoxicity assay, MRC5 fibroblasts; format: cell-based; settings: Homo sapiens, Fibroblast, non-tumor fibroblasts
# Source text: as §3
# CEM = test: MTT cytotoxicity assay, CEM; format: cell-based; settings: Homo sapiens, CCRF-CEM
# Source text: as §3
# HCT116p53 wt = test: MTT cytotoxicity assay, HCT116p53 wt; format: cell-based; settings: Homo sapiens
# Source text: as §3
# U2OS = test: MTT cytotoxicity assay, U2OS; format: cell-based; settings: Homo sapiens
# Source text: as §3
Structure (SMILES),inhibition at 0.1 µM (human 17βHSD type 1) [%],inhibition at 1 µM (human 17βHSD type 1) [%],IC50 (human 17βHSD type 1) [nM],% of inhibition of human 17βHSD5 (human 17βHSD type 5) [%],melting point [°C],other results
"C=C[C@@H]1CC(=O)[C@@]2(C)CC[C@@H]3c4ccc(O)cc4CC[C@H]3[C@H]12 [Compound 2a, 3-Hydroxy-15β-vinyl-estra-1,3,5(10)-trien-17-one]",79,95,17,7,162,"estrogenic effect in words [1]: partial estrogenicity; isoenzyme selectivity in words (human 17βHSD type 1; among 17βHSD types 1, 2, 3, 4, 5, 7): inhibits exclusively the 17βHSD1 isoenzyme"
"C[C@]12CC[C@@H]3c4ccc(O)cc4CC[C@H]3[C@@H]1[C@H](CCc1ccccc1)CC2=O [Compound 3, 15β-Phenethyl-3-hydroxy-estra-1,3,5(10)-trien-17-one]",66,83,50,60,,ER antagonism in words [1]: ER antagonist
"C[C@]12CC[C@@H]3c4ccc(O)cc4CC[C@H]3[C@@H]1[C@H](CCc1ccc(C(F)(F)F)cc1)CC2=O [Compound 4, 15β-(4-(Trifluoromethyl)phenethyl)-3-hydroxy-estra-1,3,5(10)-trien-17-one]",68,91,42,89,168,ER antagonism in words [1]: ER antagonist
"C[C@]12CC[C@@H]3c4ccc(O)cc4CC[C@H]3[C@@H]1[C@H](CCc1ccc3ccccc3c1)CC2=O [Compound 8, 3-Hydroxy-15β-(2-(naphtalen-2-yl)ethyl)-estra-1,3,5(10)-trien-17-one]",77,92,18,76,201,
"COc1cccc(CC[C@@H]2CC(=O)[C@@]3(C)CC[C@@H]4c5ccc(O)cc5CC[C@H]4[C@H]23)c1 [Compound 10, 3-Hydroxy-15β-(3-methoxyphenethyl)-estra-1,3,5(10)-trien-17-one]",72,87,,,178,
"COc1ccc(CC[C@@H]2CC(=O)[C@@]3(C)CC[C@@H]4c5ccc(O)cc5CC[C@H]4[C@H]23)cc1OC [Compound 11, 3-Hydroxy-15β-(3,4-dimethoxyphenethyl)-estra-1,3,5(10)-trien-17-one]",36,67,,,,
"CC(C)(C)Oc1ccc(CC[C@@H]2CC(=O)[C@@]3(C)CC[C@@H]4c5ccc(O)cc5CC[C@H]4[C@H]23)cc1 [Compound 13, 15β-(4-t-Butoxyphenethyl)-3-hydroxy-estra-1,3,5(10)-trien-17-one]",62,80,,,,
"C[C@]12CC[C@@H]3c4ccc(O)cc4CC[C@H]3[C@@H]1[C@H](CCc1ccc(O)cc1)CC2=O [Compound 14, 15β-(4-Hydroxyphenethyl)-3-hydroxy-estra-1,3,5(10)-trien-17-one]",72,97,,42,,"E1 in supernatant, MCF-7 (human 17βHSD1 [2]; 8 hr.): 4298 pg/mL; E1 in supernatant, MCF-7 (human 17βHSD1 [2]; 24 hr.): 2626 pg/mL; IC50 (CEM-DNR-bulk): 30.8 µM; IC50 (BJ): ≥ 50 µM; IC50 (HCT116p53-/-): 32.6 µM; IC50 (A549): 41.3 µM; IC50 (K562-Tax): 18.9 µM; E1 in supernatant, CHO (human 17βHSD1 [3]; 8 hr.): 3179 pg/mL; E1 in supernatant, CHO (human 17βHSD1 [3]; 24 hr.): 1054 pg/mL; IC50 (K562): 22.6 µM; IC50 (MRCS): 50 µM; IC50 (CEM): 25.8 µM; IC50 (HCT116p53 wt): 28.2 µM; IC50 (U2OS): 44.6 µM"
"C[C@]12CC[C@@H]3c4ccc(O)cc4CC[C@H]3[C@@H]1[C@H](CCc1cc(F)c(F)c(F)c1)CC2=O [Compound 16, 15β-(3,4,5-Trifluorophenethyl)-3-hydroxy-estra-1,3,5(10)-trien-17-one]",67,95,36,79,182,
"C[C@]12CC[C@@H]3c4ccc(O)cc4CC[C@H]3[C@@H]1[C@H](CCc1c(F)c(F)c(F)c(F)c1F)CC2=O [Compound 17, 15β-(2,3,4,5,6-Pentafluorophenethyl)-3-hydroxy-estra-1,3,5(10)-trien-17-one]",56,90,,31.,151,
